Patent US8551996B2, “Compounds, compositions, methods of synthesis, and methods of treatment” (Emory University, priority 2009, dated 2013)

Target: T1, CRF-1 receptor (Homo sapiens, UniProt P34998)
T1 construct: expressed in transfected cells; host or cells: HEK293T/17
T1 sequence (P34998 24-415): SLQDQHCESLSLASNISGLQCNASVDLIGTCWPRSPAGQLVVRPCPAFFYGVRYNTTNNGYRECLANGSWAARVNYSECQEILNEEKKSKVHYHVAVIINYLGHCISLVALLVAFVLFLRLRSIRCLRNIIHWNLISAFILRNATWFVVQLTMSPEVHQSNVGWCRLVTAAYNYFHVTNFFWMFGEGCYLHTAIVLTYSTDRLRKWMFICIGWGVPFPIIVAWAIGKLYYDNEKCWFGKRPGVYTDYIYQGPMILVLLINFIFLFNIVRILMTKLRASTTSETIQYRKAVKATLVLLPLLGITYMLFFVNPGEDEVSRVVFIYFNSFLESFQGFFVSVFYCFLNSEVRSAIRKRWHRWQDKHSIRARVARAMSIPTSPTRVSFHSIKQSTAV
Test: CRF-1 receptor competitive binding vs. [125I]sauvagine
Conditions: for Ki: transfected HEK293T/17 cells expressing the CRF-1 receptor, radioligand [125I]sauvagine, read-out: CRF-1 Receptor Binding Affinities (vs. [125I] Sauvagine) Ki; for affinity for the CRF-1 receptor (in words): vs. [125I]sauvagine, only slightly reduced from that found for R121919
Description: Pyrido[2,3-b]pyrazin-2-ones of type VI (Table 1) were synthesized according to the procedure reported by Dzierba, et al., (J. Med. Chem. 2004, 47, 5783-5790) as shown in Scheme 21.

Ki | affinity for the CRF-1 receptor (in words) | SMILES
9.1 nM | high affinity | CCCCN(CC)c1cc(C)nc2c1NC(=O)CN2c1ccc(C)cc1C [Compound 191, 8-(Butylethylamino)-4-(2,4-dimethylphenyl)-6-methyl-3,4-dihydro-1H-pyrido[2,3-b]pyrazin-2-one]
5.7 ± 0.3 nM | high affinity | CCCCN(CC)c1cc(C)nc2c1NC(=O)CN2c1ccc(Br)cc1C [Compound 188, 8-(Butylethylamino)-4-(2-methyl-4-bromophenyl)-6-methyl-3,4-dihydro-1H-pyrido[2,3-b]pyrazin-2-one]
6.2 ± 1.4 nM | high affinity | CCCCN(CC)c1cc(C)nc2c1NC(=O)CN2c1ccc(C)cc1Br [Compound 185, 4-(2-Bromo-4-methylphenyl)-8-(butylethylamino)-6-methyl-3,4-dihydra-1H-pyrido[2,3-b]pyrazin-2-one]
